Experimental data: PMC7316778 (Nature Communications, 2020)

Assays:
FER^WT = FER^WT (Homo sapiens, UniProt P16591); experiment: In vitro TR-FRET kinase assay
FES^WT = target: T1, FES^WT (Homo sapiens, UniProt P07332); experiment: In vitro TR-FRET kinase assay; format: biochemical; conditions: for Residual activity (%): FES WT, mean, n=3
T1 construct: human FES cDNA encoding residues 448–822 or human FER cDNA encoding residues 448–820 was amplified by PCR; made in house; host or cells: E. coli BL21(DE3), co-expressing YopH phosphatase
Method: All measurements were performed in triplicate.

Sequence of FER^WT (P16591 448-820): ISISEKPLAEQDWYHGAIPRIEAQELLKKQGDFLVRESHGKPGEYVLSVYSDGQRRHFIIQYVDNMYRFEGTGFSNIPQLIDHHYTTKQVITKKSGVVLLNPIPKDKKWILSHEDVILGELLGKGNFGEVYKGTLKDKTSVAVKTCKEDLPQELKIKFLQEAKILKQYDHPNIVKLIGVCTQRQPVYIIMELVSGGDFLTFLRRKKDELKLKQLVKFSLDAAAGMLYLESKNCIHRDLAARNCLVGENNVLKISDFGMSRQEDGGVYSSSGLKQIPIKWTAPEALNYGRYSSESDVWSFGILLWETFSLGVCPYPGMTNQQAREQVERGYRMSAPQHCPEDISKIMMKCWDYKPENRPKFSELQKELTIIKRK
T1 sequence (P07332 448-822): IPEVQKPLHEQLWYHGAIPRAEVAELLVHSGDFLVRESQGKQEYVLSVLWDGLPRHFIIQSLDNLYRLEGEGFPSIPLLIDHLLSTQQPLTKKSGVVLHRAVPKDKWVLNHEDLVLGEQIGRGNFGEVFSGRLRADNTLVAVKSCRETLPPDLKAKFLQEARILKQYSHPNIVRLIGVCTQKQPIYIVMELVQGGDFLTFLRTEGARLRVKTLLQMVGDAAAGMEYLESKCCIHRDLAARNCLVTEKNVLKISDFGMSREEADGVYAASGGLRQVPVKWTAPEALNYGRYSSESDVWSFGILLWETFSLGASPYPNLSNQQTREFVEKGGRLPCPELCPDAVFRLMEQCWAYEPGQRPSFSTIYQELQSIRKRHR

CCC(=O)Nc1ccccc1Nc1nc(Nc2ccccc2OC)ncc1Cl [Supplementary Figure 8e]
Residual activity (%) WT Mean (FER^WT; log[inhibitor] (M) -5): 15.6173% | Residual activity (%) WT Mean (FER^WT; log[inhibitor] (M) -5.52288): 11.558% | Residual activity (%) WT Mean (FER^WT; log[inhibitor] (M) -6): 19.5081% | Residual activity (%) WT Mean (FER^WT; log[inhibitor] (M) -6.52288): 74.3812% | Residual activity (%) WT Mean (FER^WT; log[inhibitor] (M) -7): 96.1324% | Residual activity (%) WT Mean (FER^WT; log[inhibitor] (M) -7.52288): 93.3601% | Residual activity (%) WT Mean (FER^WT; log[inhibitor] (M) -8): 104.761% | Residual activity (%) WT Mean (FER^WT; log[inhibitor] (M) -8.52288): 92.7732% | Residual activity (%) WT Mean (FER^WT; log[inhibitor] (M) -9): 106.725% | Residual activity (%) WT Mean (FER^WT; log[inhibitor] (M) -9.52288): 98.2336% | Residual activity (%) WT Mean (FER^WT; log[inhibitor] (M) -10): 113.972% | Residual activity (%) WT Mean (FER^WT; log[inhibitor] (M) -10.5229): 97.8463% | Residual activity (%) WT Mean (FER^WT; log[inhibitor] (M) -11): 108.607%

COc1ccccc1Nc1ncc(Cl)c(Nc2ccccc2S(=O)(=O)C(C)C)n1 [Supplementary Figure 1c]
Residual activity (%) (FES^WT; log[inhibitor] (M) = -5): 3.135% | Residual activity (%) (FES^WT; log[inhibitor] (M) = -5.52288): 1.274% | Residual activity (%) (FES^WT; log[inhibitor] (M) = -6): 0.9673% | Residual activity (%) (FES^WT; log[inhibitor] (M) = -6.52288): 3.912% | Residual activity (%) (FES^WT; log[inhibitor] (M) = -7): 25.313% | Residual activity (%) (FES^WT; log[inhibitor] (M) = -7.52288): 69.4661% | Residual activity (%) (FES^WT; log[inhibitor] (M) = -8): 80.7219% | Residual activity (%) (FES^WT; log[inhibitor] (M) = -8.52288): 93.5112% | Residual activity (%) (FES^WT; log[inhibitor] (M) = -9): 92.1668% | Residual activity (%) (FES^WT; log[inhibitor] (M) = -9.52288): 93.0906% | Residual activity (%) (FES^WT; log[inhibitor] (M) = -10): 84.5762% | Residual activity (%) (FES^WT; log[inhibitor] (M) = -10.5229): 85.1733% | Residual activity (%) (FES^WT; log[inhibitor] (M) = -11): 101.85%

C=CC(=O)Nc1ccccc1Nc1nc(Nc2ccccc2OC)ncc1Cl [Supplementary Figure 1e]
Residual activity (%) (FES^WT; log[inhibitor] (M) = -5): 4.602% | Residual activity (%) (FES^WT; log[inhibitor] (M) = -5.52288): 7.942% | Residual activity (%) (FES^WT; log[inhibitor] (M) = -6): 20.2502% | Residual activity (%) (FES^WT; log[inhibitor] (M) = -6.52288): 52.3925% | Residual activity (%) (FES^WT; log[inhibitor] (M) = -7): 77.2757% | Residual activity (%) (FES^WT; log[inhibitor] (M) = -7.52288): 90.9565% | Residual activity (%) (FES^WT; log[inhibitor] (M) = -8): 93.9799% | Residual activity (%) (FES^WT; log[inhibitor] (M) = -8.52288): 103.383% | Residual activity (%) (FES^WT; log[inhibitor] (M) = -9): 97.8768% | Residual activity (%) (FES^WT; log[inhibitor] (M) = -9.52288): 97.6076% | Residual activity (%) (FES^WT; log[inhibitor] (M) = -10): 100% | Residual activity (%) (FES^WT; log[inhibitor] (M) = -10.5229): 116.125%

C=CC(=O)Nc1ccccc1Nc1nc(Nc2ccccc2OC)ncc1Cl [Supplementary Figure 8d]
Residual activity (%) WT Mean (FER^WT; log[inhibitor] (M) -5): 4.829% | Residual activity (%) WT Mean (FER^WT; log[inhibitor] (M) -5.52288): 6.417% | Residual activity (%) WT Mean (FER^WT; log[inhibitor] (M) -6): 19.305% | Residual activity (%) WT Mean (FER^WT; log[inhibitor] (M) -6.52288): 38.3519% | Residual activity (%) WT Mean (FER^WT; log[inhibitor] (M) -7): 71.19% | Residual activity (%) WT Mean (FER^WT; log[inhibitor] (M) -7.52288): 87.6084% | Residual activity (%) WT Mean (FER^WT; log[inhibitor] (M) -8): 99.295% | Residual activity (%) WT Mean (FER^WT; log[inhibitor] (M) -8.52288): 98.6881% | Residual activity (%) WT Mean (FER^WT; log[inhibitor] (M) -9): 106.616% | Residual activity (%) WT Mean (FER^WT; log[inhibitor] (M) -9.52288): 102.334% | Residual activity (%) WT Mean (FER^WT; log[inhibitor] (M) -10): 107.184% | Residual activity (%) WT Mean (FER^WT; log[inhibitor] (M) -10.5229): 102.376% | Residual activity (%) WT Mean (FER^WT; log[inhibitor] (M) -11): 116.944%

C#CCOc1ccc(Nc2ncc(Cl)c(Nc3ccccc3NC(=O)C=C)n2)c(OC)c1 [Supplementary Figure 8f]
Residual activity (%) WT Mean (FER^WT; log[inhibitor] (M) -5): 5.2329% | Residual activity (%) WT Mean (FER^WT; log[inhibitor] (M) -5.52288): 3.792% | Residual activity (%) WT Mean (FER^WT; log[inhibitor] (M) -6): 14.1153% | Residual activity (%) WT Mean (FER^WT; log[inhibitor] (M) -6.52288): 25.7365% | Residual activity (%) WT Mean (FER^WT; log[inhibitor] (M) -7): 62.4124% | Residual activity (%) WT Mean (FER^WT; log[inhibitor] (M) -7.52288): 74.9371% | Residual activity (%) WT Mean (FER^WT; log[inhibitor] (M) -8): 97.3541% | Residual activity (%) WT Mean (FER^WT; log[inhibitor] (M) -8.52288): 92.3988% | Residual activity (%) WT Mean (FER^WT; log[inhibitor] (M) -9): 107.069% | Residual activity (%) WT Mean (FER^WT; log[inhibitor] (M) -9.52288): 97.7799% | Residual activity (%) WT Mean (FER^WT; log[inhibitor] (M) -10): 105.81% | Residual activity (%) WT Mean (FER^WT; log[inhibitor] (M) -10.5229): 90.1497% | Residual activity (%) WT Mean (FER^WT; log[inhibitor] (M) -11): 111.768%

C=CC(=O)Nc1cccc(Nc2nc(Nc3ccccc3OC)ncc2Cl)c1 [Supplementary Figure 1d]
Residual activity (%) (FES^WT; log[inhibitor] (M) = -5): 32.3982% | Residual activity (%) (FES^WT; log[inhibitor] (M) = -5.52288): 40.0335% | Residual activity (%) (FES^WT; log[inhibitor] (M) = -6): 62.9411% | Residual activity (%) (FES^WT; log[inhibitor] (M) = -6.52288): 63.4299% | Residual activity (%) (FES^WT; log[inhibitor] (M) = -7): 90.1255% | Residual activity (%) (FES^WT; log[inhibitor] (M) = -7.52288): 87.1043% | Residual activity (%) (FES^WT; log[inhibitor] (M) = -8): 96.4271% | Residual activity (%) (FES^WT; log[inhibitor] (M) = -8.52288): 92.3122% | Residual activity (%) (FES^WT; log[inhibitor] (M) = -9): 101.396% | Residual activity (%) (FES^WT; log[inhibitor] (M) = -9.52288): 120.198% | Residual activity (%) (FES^WT; log[inhibitor] (M) = -10.5229): 97.4644% | Residual activity (%) (FES^WT; log[inhibitor] (M) = -11): 93.0274%

C=CC(=O)Nc1ccccc1Nc1nc(Nc2ccccc2OC)ncc1Cl [Compound 4]
IC50 (FER^WT): 0.2 µM | IC50 (FES^WT; TR-FRET assay, 5 µM ATP, n = 3, read-out: pIC50 FES^WT (converted)): 2 µM
